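A five-concentration, 48-hour dose response in 96-well plates underlies each endpoint, interpolated linearly between surrounding concentrations. At the GI50, growth is halved. TGI denotes the concentration required for complete inhibition of growth.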
Tests used:
Assay in all cases: NCI-60 cell line screen, 48 h
[1] = system: MDA-MB-435
[2] = system: HCT-116 colon
[3] = system: A549 NSCLC
[4] = system: CAKI-1 renal
[5] = system: OVCAR-5 ovarian
[6] = system: SF-539 CNS
[7] = system: SF-268 CNS
[8] = system: IGROV1 ovarian
[9] = system: HL-60(TB) leukemia
[10] = system: MALME-3M melanoma

Compound | GI50 [1] | TGI [1] | GI50 [2] | TGI [2] | GI50 [3] | TGI [3] | GI50 [4] | TGI [4] | GI50 [5] | TGI [5] | GI50 [6] | TGI [6] | GI50 [7] | TGI [7] | GI50 [8] | TGI [8] | GI50 [9] | TGI [9] | GI50 [10] | TGI [10]
COc1ccc(C(=O)C(CN(C)C)c2ccccc2)cc1 (stereo not given) | 2.83 µM | 11.4 µM | 0.707 µM | 1.95 µM | 18.1 µM | 96.3 µM | 2.08 µM | 7.82 µM | 3.82 µM | 10 µM | 5.07 µM | 16.6 µM | 2.17 µM | 4.86 µM | 2.18 µM | 5.74 µM | 5.54 µM | > 100 µM | 3.3 µM | 13.6 µM
COc1cc(C2CC(c3cc(Cl)c(C)cc3O)=NN2c2ccc(S(N)(=O)=O)cc2)cc(OC)c1OC (stereo not given) | 2.57 µM | 8.47 µM | 1.63 µM | 2.98 µM | 4 µM | 15.5 µM | 2.55 µM | 16.9 µM | 1.87 µM | 4.28 µM | 1.77 µM | 3.37 µM | 4.29 µM | 34.2 µM | 2.23 µM | 5.54 µM | 2.95 µM | 14.8 µM | 2.08 µM | 4.89 µM
O=C(O)c1ccccc1/C=C1/Nc2ccccc2C1=O | – | > 100 µM | – | > 100 µM | – | > 100 µM | – | > 100 µM | – | > 100 µM | – | > 100 µM | – | > 100 µM | – | > 100 µM | – | > 100 µM | – | > 100 µM

Reference: PubChem BioAssay (NCI)
